Data from patent US7678918B2, “Intermediates for imidazonaphthyridines” (3M Innovative Properties Company, priority 1997, dated 2010).
Counter-ions that a name gives are not always drawn.

Assays:
[1] = system: IFN; test: Cytokine Induction in Human Cells: interferon (IFN) secreted by PBMCs, A549/encephalomyocarditis bioassay; type: cell-based; settings: 18 to 24 hours
Excerpt: (§1) An in vitro human blood cell system was used to assess cytokine induction by compounds of the invention. Activity is based on the measurement of interferon and tumor necrosis factor (ℑ) (IFN and TNF, respectively) secreted into culture media as described by Testerman et. al. In “Cytokine Induction by the Immunomodulators Imiquimod and S-27609”, Journal of Leukocyte Biology, 58, 365-372 (September, 1995). Blood Cell Preparation for Culture
(§2) Whole blood is collected by venipuncture into EDTA vacutainer tubes from healthy human donors. Peripheral blood mononuclear cells (PBMCs) are separated from whole blood by Histopaque®-1077 (Sigma Chemicals, St. Louis, Mo.) density gradient centrifugation. The PBMCs are suspended at 1.5-2×10^6 cells/mL in RPMI 1640 medium containing 10% fetal bovine serum, 2 mM L-glutamine and 1% penicillin/streptomycin solution (RPMI complete). 1 mL portions of PBMC suspension are added to 24 well flat bottom sterile tissue culture plates.
(§3) The compounds are solubilized in dimethyl sulfoxide (DMSO). The DMSO concentration should not exceed a final concentration of 1% for addition to the culture wells. The compounds are generally tested in a concentration range of from 0.1 to 100 μM.
(§4) The solution of test compound is added to the wells containing 1 mL of PBMCs in media. The plates are covered with plastic lids, mixed gently and then incubated for 18 to 24 hours at 37° C. with a 5% carbon dioxide atmosphere.
(§5) Following incubation the plates are centrifuged for 5-10 minutes at 1000 rpm (˜200×g) at 4° C. The cell culture supernatant is removed with a sterile polypropylene pipet and transferred to a 2 mL sterile cryotube. Samples are maintained at −70° C. until analysis.
Interferon is determined by bioassay using A549 human lung carcinoma cells challenged with encephalomyocarditis. The details of the bioassay method have been described by G. L. Brennan and L. H. Kronenberg in “Automated Bioassay of Interferons in Micro-test Plates”, Biotechniques, June/July 78, 1983, incorporated herein by reference. Briefly stated the method is as follows: A549 cells are incubated with samples and standard interferon dilutions at 37° C. for 24 hours. The incubated cells are then infected with an inoculum of encephalomyocarditis virus. The infected cells are incubated for an additional 24 hours at 37° C. before quantifying for viral cytopathic effect. The viral cytopathic effect is quantified by staining followed by visual scoring of the plates. Results are expressed as alpha reference units/mL based on the value obtained for NIH Human Leukocyte IFN standard.

[2] = system: TNF; test: Cytokine Induction in Human Cells: tumor necrosis factor (TNF) secreted by PBMCs, ELISA; type: cell-based; settings: 18 to 24 hours
Excerpt: as §1, §2, §3, §4, §5
Tumor necrosis factor (ℑ) (TNF) concentration is determined using an ELISA kit available from Genzyme, Cambridge, Mass. The results are expressed as pg/mL.
Note: call rule not given here.

Row | Compound | IFN induction ([1]; Dose Concentration 0.1 μM) | IFN induction ([1]; Dose Concentration 1.0 μM) | IFN induction ([1]; Dose Concentration 10.0 μM) | IFN induction ([1]; Dose Concentration 100.0 μM) | TNF induction ([2]; Dose Concentration 0.1 μM) | TNF induction ([2]; Dose Concentration 1.0 μM) | TNF induction ([2]; Dose Concentration 10.0 μM) | TNF induction ([2]; Dose Concentration 100.0 μM)
1 | CCCCc1nc2c(N)nc3cccnc3c2n1CCCCNC(=O)c1ccc(N2CCOCC2)nc1 [Example 106, N^1-[4(4-Amino-2-butyl-1H-imidazo[4,5-c][1,5]naphthyridin-1-yl)butyl]-6-morpholinonicotinamide] | + | + | + | − | − | + | + | −
2 | CCCCc1nc2c(N)nc3cccnc3c2n1CCCCNC(=O)Cc1ccc(OC)cc1 [Example 187] | − | + | + | + | − | + | + | −
3 | CCCCCCCCCCCC(=O)NCCn1c(CCCC)nc2c(N)nc3cccnc3c21 [Example 201] | − | − | − | − | − | − | − | +
4 | CCCCc1nc2c(N)nc3cccnc3c2n1CCCCNC(=O)OCC1c2ccccc2-c2ccccc21 [Example 57, 9H-9-Fluorenylmethyl N-[4-(4-Amino-2-butyl-1H-imidazo[4,5-c][1,5]naphthyridin-1-yl)butyl]carbamate] | − | + | + | + | − | − | + | +
5 | CCCCc1nc2c(N)nc3cccnc3c2n1CCNC(=O)C1(c2ccc(Cl)cc2)CCCC1 [Example 119] |  | − | − | − |  | − | − | −
6 | CCCCc1nc2c(N)nc3cccnc3c2n1CCNC(=O)C1C2CC3C(C2=O)C31 (centres unmarked) [Example 198] | − | − | + | + | − | + | + | +
7 | CCCCCCCOc1ccc(C(=O)NCCn2c(CCCC)nc3c(N)nc4cccnc4c32)cc1 [Example 149] | − | − | − | − | − | − | − | −
8 | CCCCc1nc2c(N)nc3cccnc3c2n1CCCCNC(=O)c1ccc(C#N)cc1 [Example 176] | − | + | + | + | − | − | + | +
9 | CCCCc1nc2c(N)nc3cccnc3c2n1CCNC(=O)C1CC1 [Example 136] |  | + | + | + |  | − | + | +
10 | CCCCc1nc2c(N)nc3cccnc3c2n1CCNC(=O)C(N)CC(C)C (centres unmarked) [Example 102, N^1-[2-(4-Amino-2-butyl-1H-imidazo[4,5-c][1,5]naphthyridin-1-yl)ethyl]-2-amino-4-methylpentanamide] | + | + | + | + | + | + | + | +
11 | CCCCc1nc2c(N)nc3cccnc3c2n1CCNC(=O)CCC(F)(F)F [Example 199] | + | − | + | + | − | − | + | +
12 | CCCCc1nc2c(N)nc3cccnc3c2n1CCNC(=O)c1ccc(C#N)cc1 [Example 139] |  | + | + | + |  | − | + | +
13 | CCCCc1nc2c(N)nc3cccnc3c2n1CCNC(=O)CC(C)(C)C [Example 135] |  | − | + | + |  | − | + | +
14 | CCCCc1nc2c(N)nc3cccnc3c2n1CCCCNC(=O)CCCCn1cnc2c1c(=O)n(C)c(=O)n2C [Example 105, N^1-[4-(4-Amino-2-butyl-1H-imidazo[4,5-c][1,5]naphthyridin-1-yl)butyl]-5-(1,3-dimethyl-2,6-oxo-2,3,6,7-tetrahydro-1H-purinyl)pentamide] | + | + | + | + | − | − | + | +
15 | CCCCc1nc2c(N)nc3cccnc3c2n1CCNC(=O)CCc1ccccc1 [Example 96, N^1-[2-(4-Amino-2-butyl-1H-imidazo[4,5-c][1,5]naphthyridin-1-yl)ethyl]-3-phenylpropanamide Hydrochloride] | − | ± | + | + | − | − | + | +
16 | CCCCc1nc2c(N)nc3cccnc3c2n1CCCCNC(=O)c1ccccc1OC [Example 188] | + | + | + | − | − | + | + | −
17 | CCCCc1nc2c(N)nc3cccnc3c2n1CCNC(=O)CCC1CCCC1 [Example 138] |  | + | + | + |  | + | + | +
18 | CCCCc1nc2c(N)nc3cccnc3c2n1CCCCNC(=O)CCCCC(=O)OC [Example 182] | − | + | + | + | − | + | + | −
19 | CCCCc1nc2c(N)nc3cccnc3c2n1CCCCNC(=O)c1cccnc1 [Example 54, N^3-[4-(4-Amino-2-butyl-1H-imidazo[4,5-c][1,5]naphthyridin-1-yl)butyl]nicotinamide] |  | + | + | + |  | + | + | +
20 | CCCCc1nc2c(N)nc3cccnc3c2n1CCNC(=O)CCCc1ccc([N+](=O)[O-])cc1 [Example 195] | − | − | + | − | − | + | + | +
21 | CCCCc1nc2c(N)nc3cccnc3c2n1CCNC(=O)COCc1ccccc1 [Example 121] |  | + | + | + |  | + | + | +
22 | CCCCc1nc2c(N)nc3cccnc3c2n1CCCCNC(=O)NC1CCCCC1 [Example 48, N-[4-(4-Amino-2-butyl-1H-imidazo[4,5-c][1,5]naphthyridin-1-yl)butyl]-N′-cyclohexylurea] | + | + | + | − | − | + | + | −
23 | CCCCc1nc2c(N)nc3cccnc3c2n1CCCCNC(=O)OCC [Example 58, Ethyl N-[4-(4-Amino-2-butyl-1H-imidazo[4,5-c][1,5]naphthyridin-1-yl)butyl]carbamate] | + | + | + | − | − | + | + | −
